# Reference: US12582616B2, “Molecular targets for modulation of dissociative and associative states” (The Board of Trustees of the Leland Stanford Junior …, priority 2020, dated 2026)
# “Also recorded” adds a separate entry of the source.
# How the values were obtained:
# mice = test: Hot plate test
# Description: Hot Plate Test: Mice were placed on the hot plate (Bioseb), which was set to 55° C. and surrounded by a clear circular perimeter. Mouse activity was recorded using two cameras from different angles. The experiment ended when the mouse jumped to escape or 90 seconds had elapsed. Care was taken to clean and dry the hot plate apparatus between animals. For optogenetic experiments, mice were connected to patch cords and then returned to a holding cage. Illumination began 30 seconds before mice were placed on the hot plate.
# [1] = tested on: retrosplenial cortex (RSP); test: Two-photon imaging of retrosplenial cortex; format: in vivo, mouse
# Description: Mice were anesthetized with isoflurane and the skull above retrosplenial cortex was removed and replaced with a 7 mm circular glass coverslip. For layer 1 experiments, Thy1GcaMP6s mice were used. For layer 2/3 experiments, Cux2-CreER; Ai148 mice were used (tamoxifen dissolved in corn oil was injected intraperitoneally at 0.1 mg/g at least 2 weeks prior to imaging). For layer 5 experiments, Rbp4-Cre mice were injected locally in retrosplenial with 800 nL AAVdj-Ef1a-DIO-GCaMP6f (titer 5E12) at stereotactic coordinates (−3AP, 0.5ML, −0.6DV). Mice were given >=1 week to recover before imaging. Awake, head-fixed imaging was performed on a standard two photon microscope (NeuroLabWare, Los Angeles, CA). A 16x 0.8 NA Nikon objective was immersed in clear ultrasound gel for imaging (Aquasonic, Parker Laboratories); frame rate of 30 Hz. Although we observed oscillations in RSP with 50 mg/kg, we were concerned that 50 mg/kg may be too low a dose to sensitively detect a potentially weaker signal in visual cortex or layer 2/3, and so we used 80 mg/kg in these experiments.
# Two-photon tiff stack videos were registered to the average image using the TurboReg ImageJ plug-in using rigid body transformations. […] Contaminating neuropil signal was estimated from an annulus surrounding each soma mask and removed using the function F(t)=Fsoma(t)-0.3*Fneuropil(t), where Fsoma(t) is the somatic DF/F and Fneuropil(t) is the DF/F from an annulus 4 pixels wide surrounding each soma mask. The resulting traces were detrended and z-scored. The full frame fluorescence (used for quantifying layer 1 neuropil oscillations) was computed by summing all of the pixels in each frame on each time point, and then computing DF/F the same way, with no neuropil subtraction step.
# Each trace (corresponding to either a fiber photometry signal, a cellular two-photon signal, a widefield regional centroid, a widefield pixel, an sEEG trace, or a smoothed spike rate Neuropixels trace) was z-scored, and the power spectral density (PSD) was then estimated using Welch's method (pwelch( ) in Matlab), with a window size of 10*fs (15*fs for human sEEG) where fs is the sampling rate of the signal. The average band power within a specified band (i.e. 1-3 Hz) was then computed by integrating the PSD estimate (bandpower in Matlab). For displaying the traces of individual cells, traces were each zscored by subtracting the mean value of the trace (across the whole recorded time window) and dividing by the standard deviation of the trace. Unless otherwise indicated, the PSD was computed across the time window from minutes 10 to 11 post-injection.
# [2] = 50 mg/kg ketamine, control mice of knockout experiment
compound,measurement,setting,value
CNC1(c2ccccc2Cl)CCCCC1=O (stereo not drawn) [ketamine],"affective paw-licking, hot plate","mice; 50 mg/kg ketamine, RSP Cre-virus in HCN1-KO mice",strikingly restored affective paw-licking
same,"affective paw-licking, hot plate",mice; [2],abolished affective paw-licking
same,"reflexive paw-flicks, hot plate",mice; [2],preserving reflexive paw-flicks
same,"affective/emotional defensive behavior (paw-lick), hot plate",mice; ketamine 25 and 50 mg/kg,abolished affective/emotional
same,"motivational defensive behavior (jump-to-escape), hot plate",mice; ketamine 25 and 50 mg/kg,abolished
same,"reflexive responses (paw-flick), hot plate",mice; ketamine dose series up to 50 mg/kg,did not reduce reflexive responses
same,affective behavior,"mice; ketamine, GRIN1 knockouts",without recovery of affective behavior
same,dissociation-like behavioral effects,"mice; ketamine, HCN1 channels removed from retrosplenial cortex",selectively abolished both the ketamine-induced rhythm and dissociation-like behavioral effects; also recorded: did not fully elicit the dissociation-like behavioral effects
same,oscillation and population synchrony in layer 2/3 RSP neurons,"[1]; Cux2-CreER mice, after ketamine",neither oscillating neurons nor population synchrony were observed
same,synchronous activity in layer 5 RSP neurons,"[1]; Rbp4-Cre mice, after ketamine",exhibited synchronous activity
same,spread of ketamine-rhythm across layers and regions,[1]; Supplementary Note 2,did not spread beyond layer 5 neurons in retrosplenial cortex
same,"oscillation in superficial neuropil, RSP vs neighboring visual cortex","[1]; two-photon, cranial window, 80 mg/kg",observed the oscillation in RSP but not neighboring visual cortex
